Counter-ions that a name gives are not always drawn.
How the values were obtained:
[1] = biological target: T1, human FXa (Homo sapiens, UniProt P00742); test: Determination of human FXa-inhibiting effect (IC50 value); format: biochemical; details: human FXa, substrate S-2222, absorbance at 405 nm, room temperature; read-out: Human FXa-inhibiting effect (IC50)
T1 construct: purchased Enzyme Research Labolatories, Inc
Text: Determination of Human FXa-inhibiting Effect (IC50 Value)
As a control, Tris buffer was used in place of the test compound.

[2] = biological target: T1, human FXa; test: Determination of anti-FXa activity in rat plasma after oral administration; format: in vivo; details: rats, oral dose of 10 mg/kg, plasma collected 0.5, 1, 2 and 4 hours after administration, human FXa and S-2222; read-out: FXa-inhibiting activity (percent inhibition) in plasma
Method: Determination of Anti-FXa Activity in Rat Plasma After Oral Administration
(A) Administration and Blood Collection:
A drug solution (1 mg/ml) obtained by dissolving or suspending a test compound (10 mg) in 0.5% methyl cellulose (MC) was orally administered to rats (10 ml/kg). […] For rats of a control group, the same blood collection was conducted after a 0.5% MC solution was administered. Each blood sample was centrifuged at 1500×g for 10 minutes at 4° C. to separate plasma, and the plasma was preserved at −40° C. until it was used in the following determination of anti-FXa activity in plasma.
(B) Determination of FXa-inhibiting Activity in Plasma:
Tris buffer (100 mM Tris, 200 mM potassium chloride, 0.2% BSA, pH 7.4) (5456 μl), human FXa (2.5 U/ml, 44 μl) and water (550 μl) were mixed. The resultant human FXa solution was used in the following test.
The anti-FXa activity, i.e., percent inhibition (%) was calculated in accordance with the following equation: […]

T1 sequence (P00742 235-488 limits assumed): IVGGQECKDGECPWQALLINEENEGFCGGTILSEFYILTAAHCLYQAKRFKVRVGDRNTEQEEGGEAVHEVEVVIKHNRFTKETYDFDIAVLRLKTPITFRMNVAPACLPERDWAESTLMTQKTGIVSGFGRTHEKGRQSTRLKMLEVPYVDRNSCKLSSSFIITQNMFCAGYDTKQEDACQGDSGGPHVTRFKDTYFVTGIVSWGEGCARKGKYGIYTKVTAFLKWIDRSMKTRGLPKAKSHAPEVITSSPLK
T1 sequence (P00742 41-179 partner limits assumed): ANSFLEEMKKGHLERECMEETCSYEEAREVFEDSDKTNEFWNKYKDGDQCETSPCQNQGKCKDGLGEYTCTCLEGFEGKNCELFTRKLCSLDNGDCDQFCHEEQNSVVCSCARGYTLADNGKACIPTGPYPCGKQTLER

SMILES | IC50 [1] [nM] | inhibition at 10 mg/kg [2] [%] | melting point
CCOC(=O)N1CC[C@H](NC(=O)c2cc3cc(Cl)ccc3[nH]2)[C@H](NC(=O)c2nc3c(s2)CN(C)CC3)C1 (relative stereo) [Example 130, Ethyl (3R*,4S*)-4-{[(5-chloroindol-2-yl)carbonyl]amino}-3-{[(5-methyl-4,5,6,7-tetrahydrothiazolo[5,4-c]pyridin-2-yl)carbonyl]amino}piperidine-1-carboxylate hydrochloride] | 4.5 |  | 
CN1CCc2nc(C(=O)N[C@@H]3CN(C(=O)C4CC4)CC[C@@H]3NC(=O)c3cc4cc(Cl)ccc4[nH]3)sc2C1 (relative stereo) [Example 138, N-[(3R*,4S*)-4-{[(5-Chloroindol-2-yl)carbonyl]amino}-1-(cyclopropylcarbonyl)piperidin-3-yl]-5-methyl-4,5,6,7-tetrahydrothiazolo[5,4-c]pyridine-2-carboxamide hydrochloride] | 4.4 |  | 
COCC(=O)N1CC[C@H](NC(=O)c2cc3cc(Cl)ccc3[nH]2)[C@H](NC(=O)c2nc3c(s2)CN(C)CC3)C1 (relative stereo) [Example 143, N-[(3R*,4S*)-4-{[(5-Chloroindol-2-yl)carbonyl]amino}-1-(2-methoxyacetyl)piperidin-3-yl]-5-methyl-4,5,6,7-tetrahydro-thiazolo[5,4-c]pyridine-2-carboxamide hydrochloride] | 5.8 |  | 
CN1CCc2nc(C(=O)N[C@@H]3CN(C(=O)NC(C)(C)C)CC[C@@H]3NC(=O)c3cc4cc(Cl)ccc4[nH]3)sc2C1.Cl (relative stereo) [Example 164, N-((3R*,4S*)-1-[(tert-Butylamino)carbonyl]-4-{[(5-chloroindol-2-yl)carbonyl]amino}piperidin-3-yl)-5-methyl-4,5,6,7-tetrahydrothiazolo[5,4-c]pyridine-2-carboxamide hydrochloride] | 4.8 |  | 236 to 238 °C (dec.)
CN1CCc2nc(C(=O)N[C@@H]3CN(S(=O)(=O)CC(=O)O)C[C@H]3NC(=O)c3cc4cc(Cl)ccc4[nH]3)sc2C1 [Example 101, 2-[((3R,4R)-3-{[(5-Chloroindol-2-yl)carbonyl]amino}-4-{[(5-methyl-4,5,6,7-tetrahydrothiazolo[5,4-c]pyridin-2-yl)carbonyl]amino}pyrrolidin-1-yl)sulfonyl]acetic acid] | 26 |  | 

Further lines, with some results ahead:

IC50 [1] [nM] | inhibition at 10 mg/kg [2] [%] | SMILES | melting point
3.1 |  | CN1CCc2nc(C(=O)N[C@@H]3C[C@@H](C(=O)N(C)C)CC[C@@H]3NC(=S)C(=O)Nc3ccc(Cl)cc3)sc2C1 [Ex. 246, N-{(1R,2S,5S)-2-{[2-(4-Chloroanilino)-2-oxoethane-thioyl]amino}-5-[(dimethylamino)carbonyl]cyclohexyl}-5-methyl-4,5,6,7-tetrahydrothiazolo[5,4-c]pyridine-2-carboxamide] | 
1.9 |  | CN1CCc2nc(C(=O)N[C@@H]3C[C@@H](C(=O)N(C)C)CC[C@@H]3NC(=S)C(=O)Nc3ccc(Cl)cn3)sc2C1 [Ex. 247, N-{(1R,2S,5S)-2-({2-[(5-Chloropyridin-2-yl)amino]-2-oxoethanethioyl}amino)-5-[(dimethylamino)carbonyl]-cyclohexyl}-5-methyl-4,5,6,7-tetrahydrothiazolo[5,4-c]-pyridine-2-carboxamide] | 
5.4 |  | CN1CCc2nc(C(=O)N[C@@H]3C[C@@H](C(=O)N(C)C)CC[C@@H]3NC(=O)C(=S)Nc3ccc(Cl)cn3)sc2C1 [Ex. 248, N-{(1R,2S,5S)-2-({2-[(5-Chloropyridin-2-yl)amino]-2-thioxoacetyl}amino)-5-[(dimethylamino)carbonyl]-cyclohexyl}-5-methyl-4,5,6,7-tetrahydrothiazolo[5,4-c]-pyridine-2-carboxamide] | 
4.2 |  | COC(=O)[C@@H]1CC[C@H](NC(=O)c2cc3cc(Cl)ccc3[nH]2)[C@H](NC(=O)c2nc3c(s2)CN(C)CC3)C1 [Example 54, Methyl (1R,3R,4S)-4-{[(5-chloroindol-2-yl)carbonyl]amino}-3-{[(5-methyl-4,5,6,7-tetrahydrothiazolo[5,4-c]pyridin-2-yl)carbonyl]amino}cyclohexanecarboxylate] | 
3.5 |  | CCNC(=O)[C@H]1CC[C@H](NC(=O)c2cc3cc(Cl)ccc3[nH]2)[C@H](NC(=O)c2nc3c(s2)CN(C)CC3)C1 [Example 62, N-{(1R,2S,5S)-2-{[(5-Chloroindol-2-yl)carbonyl]amino}-5-[(ethylamino)carbonyl]cyclohexyl}-5-methyl-4,5,6,7-tetrahydrothiazolo[5,4-c]pyridine-2-carboxamide hydrochloride] | 
1.2 | 62 to 96 | CN1CCc2nc(C(=O)N[C@@H]3C[C@@H](C(=O)N(C)C)CC[C@@H]3NC(=O)C(=O)Nc3ccc(Cl)cc3)sc2C1 [Example 191, N^1-(4-Chlorophenyl)-N^2-((1S,2R,4S)-4-[(dimethylamino)-carbonyl]-2-{[(5-methyl-4,5,6,7-tetrahydrothiazolo[5,4-c]-pyridin-2-yl)carbonyl]amino}cyclohexyl)ethanediamide hydrochloride] | 
5 | 62 to 96 | CN1CCc2nc(C(=O)N[C@@H]3C[C@@H](C(=O)N(C)C)CC[C@@H]3NC(=O)C(=O)Nc3ccc(F)cc3)sc2C1 [Example 194, N^1-((1S,2R,4S)-4-[(Dimethylamino)carbonyl]-2-{[(5-methyl-4,5,6,7-tetrahydrothiazolo[5,4-c]pyridin-2-yl)carbonyl]amino}cyclohexyl)-N^2-(4-fluorophenyl)-ethanediamide hydrochloride] | 
1.5 | 62 to 96 | CN1CCc2nc(C(=O)N[C@@H]3C[C@@H](C(=O)N(C)C)CC[C@@H]3NC(=O)C(=O)Nc3ccc(Br)cn3)sc2C1 [Example 204, N^1-(5-Bromopyridin-2-yl)-N^2-((1S,2R,4S)-4-[(dimethylamino)-carbonyl]-2-{[(5-methyl-4,5,6,7-tetrahydrothiazolo[5,4-c]-pyridin-2-yl)carbonyl]amino}cyclohexyl)ethanediamide hydrochloride] | 

Source: patent US7342014B2, “Diamine derivatives” (Daiichi Pharmaceutical Co., Ltd., priority 2001, dated 2008)
